The target in one assay is CDK2 (UniProt P24941). The experiment in a line: Enzyme Assay.
A further assay addresses CDK2 (human) (UniProt P24941). The experiment in a line: Cell-Based Assay.

For `O=[N+]([O-])c1ccc2c(c1)C(c1ccccc1Cl)=Nc1c(n[nH]c1-c1cccc(O)c1)N2`, the 50% inhibitory concentration (IC50) against CDK2 fell in the range of 1 to 9.99 µM. Turning to `O=[N+]([O-])c1ccc2c(c1)C(c1ccccc1Cl)=Nc1c(n[nH]c1-c1cc3ccccc3o1)N2`, the IC50 was 1 to 9.99 µM against CDK2 and 10 to 30 µM against CDK2 (human) (hct 116). In the case of `Nc1ccc2c(c1)C(c1ccccc1Cl)=Nc1c[nH]nc1N2`, the concentration for half-maximal inhibition (IC50) fell in the range of 1 to 9.99 µM against CDK2, 10 to 30 µM at CDK2 (human) (hct 116), 10 to 30 µM against CDK2 (human) (mda-mb-435) and 10 to 30 µM against CDK2 (human) (sw480).

As for `O=[N+]([O-])c1ccc2c(c1)C(c1ccccc1)=Nc1c(n[nH]c1-c1ncc[nH]1)N2`, the IC50 on CDK2 fell in the range of 1 to 9.99 µM. Regarding `O=[N+]([O-])c1ccc2c(c1)C(c1ccccc1Cl)=Nc1c(n[nH]c1-c1cccc(C(F)(F)F)c1)N2`, the IC50 against CDK2 and against CDK2 (human) (hct 116) was 10 to 30 µM in each case. In turn, `Cc1cccc(-c2[nH]nc3c2N=C(c2ccccc2Cl)c2cc([N+](=O)[O-])ccc2N3)c1` had an IC50 on CDK2 of 1 to 9.99 µM. On to `O=[N+]([O-])c1ccc2c(c1)C(c1ccccc1Cl)=Nc1c(n[nH]c1-c1cc3ccccc3[nH]1)N2`, for which the values for the IC50 against CDK2, on CDK2 (human) (hct 116) and at CDK2 (human) (sw480) were 1 to 9.99 µM, 10 to 30 µM and 10 to 30 µM, respectively. For the compound `N#Cc1ccccc1-c1[nH]nc2c1N=C(c1ccccc1Cl)c1cc([N+](=O)[O-])ccc1N2`, the half-inhibitory concentration (IC50) on CDK2 lay in the range of 1 to 9.99 µM.

On CDK2, `CN(C)c1ccc(-c2[nH]nc3c2N=C(c2ccccc2Cl)c2cc([N+](=O)[O-])ccc2N3)cc1` came in with an IC50 of 1 to 9.99 µM.

With `CCc1ccc(-c2[nH]nc3c2N=C(c2ccccc2Cl)c2cc([N+](=O)[O-])ccc2N3)o1`, the IC50 against CDK2 is 1 to 9.99 µM. Regarding `O=[N+]([O-])c1ccc2c(c1)C(c1ccccc1Cl)=Nc1c(n[nH]c1Cc1ccccc1)N2`, the IC50 was 1 to 9.99 µM against CDK2, 10 to 30 µM on CDK2 (human) (hct 116), 10 to 30 µM on CDK2 (human) (mda-mb-435) and 10 to 30 µM against CDK2 (human) (sw480).

Compound `O=C(c1ccc2c(c1)C(c1ccccc1F)=Nc1c[nH]nc1N2)N(CCO)CCO` yielded an IC50 against CDK2 of 1 to 9.99 µM. Consider `COC(=O)c1ccc2c(c1)C(c1ccccc1)=Nc1c[nH]nc1N2`, for which the IC50 at CDK2 lay within 1 to 9.99 µM.

In the case of `Cc1[nH]nc2c1N=C(c1ccccc1)c1cc(I)ccc1N2`, the half-inhibitory concentration (IC50) lay within 1 to 9.99 µM against CDK2 and 10 to 30 µM against CDK2 (human) (sw480). Consider `Fc1ccccc1C1=Nc2c[nH]nc2Nc2ccc(I)cc21`, for which the IC50 on CDK2 fell in the range of 1 to 9.99 µM. The compound `Clc1ccc2c(c1)C(c1ccccc1)=Nc1c[nH]nc1N2` had a concentration for half-maximal inhibition (IC50) at CDK2 of 1 to 9.99 µM. On the same count and under the same terms, to `O=[N+]([O-])c1ccc2c(c1)C(c1ccccc1)=Nc1c(n[nH]c1-c1ccc3c(c1)OCO3)N2` belongs 10 to 30 µM. As for `O=[N+]([O-])c1ccc2c(c1)C(c1ccccc1Cl)=Nc1c(n[nH]c1-c1ccccc1C(F)(F)F)N2`, the IC50 on CDK2 and on CDK2 (human) (sw480) was 10 to 30 µM throughout. The compound `O=[N+]([O-])c1ccc2c(c1)C(c1ccccc1)=Nc1c(n[nH]c1-c1cccnc1)N2` came in with an IC50 at CDK2 of 1 to 9.99 µM. As to `O=[N+]([O-])c1ccc2c(c1)C(c1ccccc1Cl)=Nc1c(n[nH]c1-[n+]1ccc[nH]1)N2`, the IC50 on CDK2 lay within 0.01 to 0.99 µM; against CDK2 (human) (mda-mb-435), 10 to 30 µM. Turning to `O=[N+]([O-])c1ccc2c(c1)C(c1ccccc1Cl)=Nc1c(n[nH]c1-c1ccc3ccccc3c1)N2`, the half-maximal inhibitory concentration (IC50) against CDK2 lay in the range of 1 to 9.99 µM.

`Cc1ccc(-c2[nH]nc3c2N=C(c2ccccc2Cl)c2cc([N+](=O)[O-])ccc2N3)s1`: the IC50 at CDK2 fell in the range of 1 to 9.99 µM. Take `O=[N+]([O-])c1ccc2c(c1)C(c1ccccc1Cl)=Nc1c(n[nH]c1-c1ccc(-n3cccc3)cc1)N2`: the IC50 against CDK2 and against CDK2 (human) (hct 116) was 10 to 30 µM in each case. As to `O=C(O)c1ccc2c(c1)C(c1ccccc1)=Nc1c[nH]nc1N2`, the IC50 against CDK2 is 1 to 9.99 µM. As to `O=[N+]([O-])c1ccc2c(c1)C(c1ccccc1Cl)=Nc1c(n[nH]c1CCc1ccccc1)N2`, the IC50 was 1 to 9.99 µM against CDK2, 10 to 30 µM against CDK2 (human) (hct 116), 10 to 30 µM on CDK2 (human) (mda-mb-435) and 10 to 30 µM against CDK2 (human) (sw480). At CDK2, `Fc1ccccc1C1=Nc2c[nH]nc2Nc2ccc(Cl)cc21` showed an IC50 of 1 to 9.99 µM. Consider `CS(=O)(=O)c1ccc2c(c1)C(c1ccccc1)=Nc1c[nH]nc1N2`, for which the IC50 against CDK2 is 1 to 9.99 µM; at CDK2 (human) (hct 116), 10 to 30 µM. At CDK2, `Cc1ccc(-c2[nH]nc3c2N=C(c2ccccc2Cl)c2cc([N+](=O)[O-])ccc2N3)cc1` displayed an IC50 of 1 to 9.99 µM.

As to `O=[N+]([O-])c1ccc2c(c1)C(c1ccccc1Cl)=Nc1c(n[nH]c1-c1ccccc1[N+](=O)[O-])N2`, the IC50 at CDK2 fell in the range of 10 to 30 µM. `Cc1ccsc1-c1[nH]nc2c1N=C(c1ccccc1Cl)c1cc([N+](=O)[O-])ccc1N2`: the IC50 on CDK2 was in the range of 0.01 to 0.99 µM; against CDK2 (human) (hct 116), 10 to 30 µM. The compound `CC(C)Cc1[nH]nc2c1N=C(c1ccccc1Cl)c1cc([N+](=O)[O-])ccc1N2` yielded a 50% inhibitory concentration (IC50) against CDK2 of 1 to 9.99 µM. For the compound `Cc1ccccc1-c1[nH]nc2c1N=C(c1ccccc1Cl)c1cc([N+](=O)[O-])ccc1N2`, the IC50 at CDK2 fell in the range of 1 to 9.99 µM; against CDK2 (human) (hct 116), 10 to 30 µM; at CDK2 (human) (sw480), 10 to 30 µM.

For the origin of these results see the Kinase Knowledgebase extract (Sharma et al. 2016).
